Patent US20230111310A1, “CARBOXYLIC ACID DERIVATIVE-SUBSTITUTED IMINO ARYL COMPOUND, PREPARATION METHOD THEREFOR, HERBICIDAL COMPOSITION AND USE THEREOF” (Qingdao Kingagroot Chemical Compound Co., Ltd., priority 2020, published 2023)

Columns and labels:
Format in all cases: in vivo
Descurainia sophia = assay: Weeding effect in pre-emergence stage; conditions: 30 g/ha, 4 weeks
Experimental: (§1) The activity level criteria for plant damage (i.e., growth control rate) are as follows:
(§2) The aforementioned seeds of monocotyledonous and dicotyledonous weeds and main crops were put into a plastic pot loaded with soil and covered with 0.5-2 cm soil. The test compounds of the present invention was dissolved with acetone, then added with tween 80, diluted by a certain amount of water to reach a certain concentration, and sprayed immediately after sowing. The obtained seeds were incubated for 4 weeks in the greenhouse after spraying and the test results were observed. It was observed that the herbicide mostly had excellent effect at the application rate of 500, 250, 125, 60, 30, 15, 7.5 g/ha, especially to weeds such as Echinochloa crusgalli. Digitaria sanguinalis and Abutilon theophrasti, etc. And many compounds had good selectivity for corn, cotton, wheat, rice, soybean, and peanut etc. In addition, evaluate the weed control effect with the above activity standard level.

Amaranthus retroflexus = assay: Weeding effect in pre-emergence stage; conditions: 30 g/ha, 4 weeks
Experimental: as §1, §2

Capsella bursa-pastoris = assay: Weeding effect in pre-emergence stage; conditions: 30 g/ha, 4 weeks
Experimental: as §1, §2

Veronica didyma Tenore = assay: Weeding effect in pre-emergence stage; conditions: 30 g/ha, 4 weeks
Experimental: as §1, §2

Setaria viridis [1] = assay: Weeding effect in pre-emergence stage; conditions: 30 g/ha, 4 weeks
Experimental: as §1, §2

Abutilon theophrasti [2] = assay: Weeding effect in pre-emergence stage; conditions: 30 g/ha, 4 weeks
Experimental: as §1, §2

Digitaria sanguinalis = assay: Weeding effect in post-emergence stage; conditions: Dose 15 g/ha; level of fresh weight growth control rate
Method in brief: (§3)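 Read-out is growth control rate, counted 3 weeks post-spray and averaged over three repeats. Greenhouse plants at the 2-3 leaf stage received spray-tower application at 500, 250, 125, 60, 30, 15 or 7.5 g/ha, with methyl oleate EC (1.5 liter/ha) and Tween 80 added.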

Alopecurus japonicus = assay: Weeding effect in post-emergence stage; conditions: Dose 15 g/ha; level of fresh weight growth control rate
Method in brief: as §3

Eleusine indica = assay: Weeding effect in post-emergence stage; conditions: Dose 15 g/ha; level of fresh weight growth control rate
Method in brief: as §3

Setaria viridis [3] = assay: Weeding effect in post-emergence stage; conditions: Dose 15 g/ha; level of fresh weight growth control rate
Method in brief: as §3

Abutilon theophrasti [4] = assay: Weeding effect in post-emergence stage; conditions: Dose 15 g/ha; level of fresh weight growth control rate
Method in brief: as §3

Peanut = assay: Pre-emergence stage, crop selectivity; conditions: 30 g/ha, 4 weeks
Experimental: as §1, §2

Soybeans = assay: Pre-emergence stage, crop selectivity; conditions: 30 g/ha, 4 weeks
Experimental: as §1, §2

cotton = assay: Pre-emergence stage, crop selectivity; conditions: 30 g/ha, 4 weeks
Experimental: as §1, §2

corn = assay: Pre-emergence stage, crop selectivity; conditions: 30 g/ha, 4 weeks
Experimental: as §1, §2

Echinochloa crusgalli = assay: Weeding effect in post-emergence stage; conditions: Dose 15 g/ha; level of fresh weight growth control rate
Method in brief: as §3

| Structure (SMILES) | activity level (growth control rate) Descurainia sophia (Descurainia sophia) | activity level (growth control rate) Amaranthus retroflexus (Amaranthus retroflexus) | activity level (growth control rate) Capsella bursa-pastoris (Capsella bursa-pastoris) | activity level (growth control rate) Veronica didyma Tenore (Veronica didyma Tenore) | activity level (growth control rate) Setaria viridis (Setaria viridis [1]) | activity level (growth control rate) Abutilon theophrasti (Abutilon theophrasti [2]) | Weeding effect in post-emergence stage, Digitaria sanguinalis (Digitaria sanguinalis) | Weeding effect in post-emergence stage, Alopecurus japonicus (Alopecurus japonicus) | Weeding effect in post-emergence stage, Eleusine indica (Eleusine indica) | Weeding effect in post-emergence stage, Setaria viridis (Setaria viridis [3]) | Weeding effect in post-emergence stage, Abutilon theophrasti (Abutilon theophrasti [4]) | plant damage level Peanut (Peanut) | plant damage level Soybeans (Soybeans) | plant damage level Cotton (cotton) | plant damage level Corn (corn) | Weeding effect in post-emergence stage, Echinochloa crusgalli (Echinochloa crusgalli) |
| --- | --- | --- | --- | --- | --- | --- | --- | --- | --- | --- | --- | --- | --- | --- | --- | --- |
| CCCOC(=O)[C@@H](C)O/N=C/c1cc(-n2c(=O)cc(C(F)(F)F)n(C)c2=O)c(F)cc1Cl [198(R)] | 5 (Level 5: growth control rate is above 85%) | 5 (Level 5: growth control rate is above 85%) | 5 (Level 5: growth control rate is above 85%) | 5 (Level 5: growth control rate is above 85%) | 5 (Level 5: growth control rate is above 85%) | 5 (Level 5: growth control rate is above 85%) | 5 (Level 5: growth control rate is above 85%) | 5 (Level 5: growth control rate is above 85%) | 5 (Level 5: growth control rate is above 85%) | 5 (Level 5: growth control rate is above 85%) | 5 (Level 5: growth control rate is above 85%) | 0 (Level 0: growth control rate is less than 5%) | 0 (Level 0: growth control rate is less than 5%) | 0 (Level 0: growth control rate is less than 5%) | 0 (Level 0: growth control rate is less than 5%) | 5 (Level 5: growth control rate is above 85%) |
| CC(C)OC(=O)[C@@H](C)O/N=C/c1cc(-n2c(=O)cc(C(F)(F)F)n(C)c2=O)c(F)cc1Cl [199(R)] | 5 (Level 5: growth control rate is above 85%) | 5 (Level 5: growth control rate is above 85%) | 5 (Level 5: growth control rate is above 85%) | 5 (Level 5: growth control rate is above 85%) | 5 (Level 5: growth control rate is above 85%) | 5 (Level 5: growth control rate is above 85%) | 5 (Level 5: growth control rate is above 85%) | 5 (Level 5: growth control rate is above 85%) | 5 (Level 5: growth control rate is above 85%) | 5 (Level 5: growth control rate is above 85%) | 5 (Level 5: growth control rate is above 85%) | 0 (Level 0: growth control rate is less than 5%) | 0 (Level 0: growth control rate is less than 5%) | 0 (Level 0: growth control rate is less than 5%) | 0 (Level 0: growth control rate is less than 5%) | 5 (Level 5: growth control rate is above 85%) |
